According to the supplement of paper PMC13380429:

Columns and labels:
Settings in all cases: 72 h
Caco-2 [1] = experiment: cell viability relative to DMSO; higher = less toxic
Calu-3 [2] = experiment: as above
HepG2 [3] = experiment: as above
U2OS [4] = experiment: as above
Vero E6 [5] = experiment: as above
Caco-2 [6] = experiment: relative viability EC50 (midpoint between 100% and the lowest measured viability); higher = less toxic
Caco-2 [7] = experiment: drug sensitivity score (DSS) for viability; higher = more toxic; extreme values may be limits of the assay
Calu-3 [8] = experiment: as above
HepG2 [9] = experiment: as above
U2OS [10] = experiment: as above
Vero E6 [11] = experiment: as above
Calu-3 [12] = experiment: relative viability EC50 (midpoint between 100% and the lowest measured viability); higher = less toxic
U2OS [13] = experiment: as above
Vero E6 [14] = experiment: as above

SMILES | cell viability (Caco-2 [1]; 1 nM) | cell viability (Caco-2 [1]; 10 nM) | cell viability (Caco-2 [1]; 100 nM) | cell viability (Caco-2 [1]; 1000 nM) | cell viability (Caco-2 [1]; 10000 nM) | cell viability (Calu-3 [2]; 1 nM) | cell viability (Calu-3 [2]; 10 nM) | cell viability (Calu-3 [2]; 100 nM) | cell viability (Calu-3 [2]; 1000 nM) | cell viability (Calu-3 [2]; 10000 nM) | cell viability (HepG2 [3]; 1 nM) | cell viability (HepG2 [3]; 10 nM) | cell viability (HepG2 [3]; 100 nM) | cell viability (HepG2 [3]; 1000 nM) | cell viability (HepG2 [3]; 10000 nM) | cell viability (U2OS [4]; 1 nM) | cell viability (U2OS [4]; 10 nM) | cell viability (U2OS [4]; 100 nM) | cell viability (U2OS [4]; 1000 nM) | cell viability (U2OS [4]; 10000 nM) | cell viability (Vero E6 [5]; 1 nM) | cell viability (Vero E6 [5]; 10 nM) | cell viability (Vero E6 [5]; 100 nM) | cell viability (Vero E6 [5]; 1000 nM) | cell viability (Vero E6 [5]; 10000 nM) | relative viability EC50 (Caco-2 [6]) | drug sensitivity score (Caco-2 [7]) | drug sensitivity score (Calu-3 [8]) | drug sensitivity score (HepG2 [9]) | drug sensitivity score (U2OS [10]) | drug sensitivity score (Vero E6 [11]) | relative viability EC50 (Calu-3 [12]) | relative viability EC50 (U2OS [13]) | relative viability EC50 (Vero E6 [14])
CCCCNNC(=O)c1ccc(Br)cc1 [UF-010] | 99.5% | 91.9% | 92.8% | 101% | 84.3% | 101% | 98.2% | 96.8% | 95.6% | 64.2% | 106% | 94% | 105% | 88% | 61.5% | 100% | 104% | 100% | 99.8% | 70.2% | 104% | 98.9% | 101% | 102% | 69.6% | > 10 µM | 0.3 | 2.4 | 3.6 | 1.3 | 1.2 | – | – | –
Nn1cnc2cc3ccccc3cc2c1=O [centazolone] | – | – | – | – | – | – | – | – | – | – | – | – | – | – | – | – | – | – | – | – | – | – | – | – | – | – | – | 0 | 0 | – | 0 | – | – | –
CC1=C(/C=C/C(C)=C/C=C/C(C)=C/CO)C(C)(C)CCC1 [retinol] | 108% | 89.4% | 96.7% | 97.8% | 93.2% | 90.6% | 103% | 101% | 91.7% | 99.5% | – | – | – | – | – | 102% | 96.9% | 102% | 96.8% | 103% | – | – | – | – | – | > 10 µM | 0 | 0 | – | 0 | – | > 10 µM | > 10 µM | –
O=C(c1ccccc1)C(O)c1ccccc1 (centres undefined) [benzoin] | – | – | – | – | – | – | – | – | – | – | – | – | – | – | – | – | – | – | – | – | – | – | – | – | – | – | – | 0 | 0.3 | 0 | 0 | – | – | –
CCOC(=O)c1cc(C#N)c(N2CCC(C(=O)NS(=O)(=O)Cc3ccccc3)CC2)nc1C [AZD1283] | 98.4% | 94.3% | 101% | 95.5% | 97% | 96.2% | 104% | 112% | 97.2% | 104% | – | – | – | – | – | 95.7% | 100% | 105% | 91.2% | 101% | 103% | 106% | 100% | 104% | 99.5% | > 10 µM | 0 | 0 | – | 0 | 0 | > 10 µM | > 10 µM | > 10 µM
CCNCCCNCCCCNCCCNCC [1,12-Besm] | 103% | 86.3% | 96.5% | 91.7% | 61.8% | 95.6% | 110% | 110% | 102% | 86.7% | 104% | 104% | 106% | 86.7% | 50.5% | 102% | 96.1% | 96.6% | 89.5% | 79.1% | 101% | 104% | 99.4% | 97.5% | 70.5% | – | 3.2 | 0.1 | 4.7 | 1.3 | 1.7 | > 10 µM | > 10 µM | –
COC(=O)C1=C(C)NC(C)=C(C(=O)O[C@H]2CCN(Cc3ccccc3)C2)[C@H]1c1cccc([N+](=O)[O-])c1 [barnidipine] | 108% | 92.8% | 102% | 105% | 73.1% | 100% | 99.4% | 99.8% | 95.9% | 82.4% | 105% | 105% | 85.1% | 95.6% | 73.8% | 98.6% | 103% | 97.5% | 98.2% | 88.8% | 87.7% | 88.6% | 105% | 106% | 87.7% | – | 0.8 | 0.9 | 1.4 | 0.1 | 0 | > 10 µM | > 10 µM | > 10 µM
COc1ccc2[nH]c([S@@+]([O-])Cc3ncc(C)c(OC)c3C)nc2c1 [esomeprazole] | 97.2% | 101% | 101% | 102% | 83.1% | 98.3% | 108% | 110% | 96.9% | 103% | – | – | – | – | – | 102% | 102% | 95% | 102% | 95.8% | 93.8% | 108% | 100% | 97.8% | 107% | > 10 µM | 0.3 | 0 | – | 0 | 0 | > 10 µM | > 10 µM | > 10 µM
CC(C)(C)c1ccc(-c2nc3c(N4CCN(Cc5ccc6nccnc6c5)CC4)cccc3[nH]2)cc1 | 109% | 91.7% | 90.3% | 100% | 59.7% | 104% | 104% | 111% | 106% | 92.1% | 98.3% | 96.5% | 94.4% | 97.7% | 66.9% | 92.8% | 101% | 93.4% | 99.2% | 54.8% | 102% | 105% | 103% | 95.6% | 64.5% | – | 2 | 0 | 1.9 | 2.4 | 2.4 | > 10 µM | – | –
O=C(Nc1cccc2cccnc12)c1ccc(N2C(=O)[C@@H]3[C@H](C2=O)[C@H]2C=C[C@@H]3C2)cc1 [exo-IWR-1] | 92.2% | 100% | 103% | 102% | 106% | 87.4% | 103% | 107% | 103% | 102% | 105% | 99.3% | 103% | 87.9% | 92% | 99.1% | 104% | 99.6% | 108% | 104% | 94.2% | 93.1% | 92.2% | 97.1% | 106% | – | 0 | 0 | 0.5 | 0 | 0 | – | – | –
O=c1[nH]cc(F)c(=O)[nH]1 [5-fluorouracil] | 80% | 103% | 85.7% | 93.4% | 79.6% | 93.5% | 99.2% | 98.1% | 101% | 90.5% | 103% | 93% | 103% | 83.7% | 54.4% | 100% | 97.4% | 97.6% | 95.6% | 64% | 102% | 95.7% | 106% | 95.8% | 62.9% | > 10 µM | 1.4 | 0 | 4.7 | 2.4 | 2.5 | > 10 µM | – | –
CCCCC1CCC(c2nc(-c3ccncc3)no2)CC1 (centres undefined) | 106% | 98.8% | 104% | 98.7% | 103% | – | – | – | – | – | – | – | – | – | – | – | – | – | – | – | – | – | – | – | – | > 10 µM | 0 | – | – | – | – | – | – | –
CCCCCCC[N+](CC)(CC)CCCCc1ccc(Cl)cc1 [clofilium] | 114% | 106% | 101% | 108% | 54.4% | 83.9% | 106% | 91.8% | 93.6% | 87.7% | 94.1% | 124% | 135% | 122% | 72.5% | 95.7% | 95.6% | 97.7% | 93% | 92.2% | 89% | 102% | 95.2% | 104% | 116% | – | 1.9 | 0 | 0.6 | 0 | 0 | > 10 µM | > 10 µM | > 10 µM
C[C@H](N/C(=N/C#N)Nc1cccc2ncccc12)c1ccccc1 | 101% | 112% | 104% | 97.8% | 98.6% | 97% | 102% | 107% | 103% | 94.8% | – | – | – | – | – | 108% | 102% | 99.1% | 109% | 101% | – | – | – | – | – | > 10 µM | 0 | 0 | – | 0 | – | > 10 µM | > 10 µM | –
CC(OC(=O)OC1CCCCC1)OC(=O)C1=C(CSc2nnnn2CCN(C)C)CS[C@@H]2[C@H](NC(=O)Cc3csc(N)n3)C(=O)N12 (some centres undefined) [cefotiam-cilexetil] | 82.3% | 93.3% | 96.8% | 113% | 117% | 96.4% | 90% | 99.1% | 96.9% | 109% | – | – | – | – | – | 96.5% | 102% | 98.4% | 99.5% | 94.8% | – | – | – | – | – | > 10 µM | 0 | 0 | – | 0 | – | > 10 µM | > 10 µM | –
NS(=O)(=O)c1cc2c(cc1Cl)NC(C(Cl)Cl)NS2(=O)=O (centres undefined) [trichlormethiazide] | – | – | – | – | – | – | – | – | – | – | – | – | – | – | – | – | – | – | – | – | – | – | – | – | – | – | – | 0 | 1.4 | 0 | 0 | – | – | –
